The values below come from paper PMC4667193 (Scientific Reports, 2015).

In assay [1] the test system is rat primary hippocampal cell culture. As to the kind of experiment: DNA fragmentation (propidium iodide, flow cytometry). Type of assay: cell-based. Particulars: for cells with fragmented DNA: 24 hours, control 28.6%. On the procedure:
DNA fragmentation was assessed using propidium iodide following the method described by Lima et al.[47]. Hippocampal cells were incubated with 10^−4 or 10^−3 M AEME for 12 and 24 hours. Briefly, exposed cells were removed from the culture plate and centrifuged (500 g for 5 minutes) and lysed with a fragmentation buffer ([…] propidium iodide, 0.1% sodium citrate, and 0.1% Triton-X) for 2 hours at room temperature in the dark. DNA fragmentation was analyzed in a flow cytometry (FACSCalibur, Becton Dickinson, CA) using the FL2-A channel (λexcitation = 585 nm and λemission = 642 nm) and […] cells were evaluated per experiment.
For orientation: A flow cytometer gives signals particle by particle.

A further assay concerns the target T1, Rat M2 mAChR (Rattus norvegicus, UniProt P10980).
T1 construct: host or cells: CHO (CHO-K1) cells
T1 sequence (P10980 1-466): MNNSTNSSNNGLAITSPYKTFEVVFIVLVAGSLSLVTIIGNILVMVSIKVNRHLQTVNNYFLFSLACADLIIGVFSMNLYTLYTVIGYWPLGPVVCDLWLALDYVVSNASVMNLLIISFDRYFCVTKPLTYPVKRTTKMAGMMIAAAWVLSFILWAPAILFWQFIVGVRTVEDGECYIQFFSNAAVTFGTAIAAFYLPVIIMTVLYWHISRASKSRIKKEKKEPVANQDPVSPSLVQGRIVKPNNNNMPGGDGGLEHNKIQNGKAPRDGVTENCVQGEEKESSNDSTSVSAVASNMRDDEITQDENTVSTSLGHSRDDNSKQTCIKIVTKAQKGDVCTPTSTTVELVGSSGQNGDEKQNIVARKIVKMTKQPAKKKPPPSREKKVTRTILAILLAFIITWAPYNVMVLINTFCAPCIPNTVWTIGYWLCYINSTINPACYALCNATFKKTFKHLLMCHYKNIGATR
As to the kind of experiment: [^3H]NMS radioligand competition binding, CHO cell membranes. To be noted: rat M2, 0.1 nM [^3H]NMS. The procedure: (§1) Membranes were prepared from CHO cells stably expressing individual rat mAChRs (rM1 to rM5). Briefly, media was removed, cells were washed with PBS and harvested with PBS into a centrifuge bottle. Cells were spun at 2,000 g for 5 minutes at 4 °C. After harvesting, the supernatant was gently discarded and cold membrane preparation buffer [Hanks’ balanced salt solution (HBSS; Invitrogen), 4.17 mM sodium bicarbonate, 20 mM HEPES and 0.5 mM EDTA] was added (10 mL/dish). Cells were then homogenized for 5–10 seconds with a rotary homogenizer (Polytron®) and centrifuged at 20,000g for 20 minutes at 4 °C. The homogenization/centrifugation cycle was repeated twice. After the last centrifugation, the supernatant was gently discarded and the pellet was resuspended in cold membrane preparation buffer (up to 2 mL). All binding reactions were performed in a total volume of 1 mL containing 25 μg of membrane protein. […] The equilibrium binding was terminated by rapid filtration using a 96-well harvester (Brandel®). Filters were washed three times with ice-cold harvesting buffer and were dried overnight. Radioactivity was counted using a TopCount NXT (PerkinElmer®) and counts were normalized to the maximal specific binding in the presence of vehicle. Saturation and competition binding data were analyzed using a weighted nonlinear least-squares interactive curve-fitting program GraphPad Prism (GraphPad Prism Software version 5.0). A mathematical model for one or two binding sites was applied. The equilibrium dissociation constant (KD) and the binding capacity (Bmax) were determined. The inhibition constant (Ki) was determined from competition curves using the Cheng and Prusoff equation[52].

The next assay has as its target T2, Rat M4 mAChR (Rattus norvegicus, UniProt P08485).
T2 construct: host or cells: CHO (CHO-K1) cells
T2 sequence (P08485 1-478): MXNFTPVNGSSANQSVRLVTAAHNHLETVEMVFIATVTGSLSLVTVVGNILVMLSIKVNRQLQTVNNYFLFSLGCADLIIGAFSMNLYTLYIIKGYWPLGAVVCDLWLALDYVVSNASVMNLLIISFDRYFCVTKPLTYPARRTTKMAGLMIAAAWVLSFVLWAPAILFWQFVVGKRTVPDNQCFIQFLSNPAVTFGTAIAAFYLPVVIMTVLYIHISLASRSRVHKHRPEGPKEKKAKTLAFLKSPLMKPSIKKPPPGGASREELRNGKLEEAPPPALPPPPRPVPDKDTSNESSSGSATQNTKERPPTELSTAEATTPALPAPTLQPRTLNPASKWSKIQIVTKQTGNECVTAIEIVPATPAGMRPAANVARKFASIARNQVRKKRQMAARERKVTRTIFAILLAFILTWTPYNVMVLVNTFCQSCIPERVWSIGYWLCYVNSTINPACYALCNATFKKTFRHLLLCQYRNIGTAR
The description is as above. To be noted: rat M4, 0.1 nM [^3H]NMS. The procedure: as §1

Another assay has as its target T3, Rat M5 mAChR (Rattus norvegicus, UniProt P08911).
T3 construct: host or cells: CHO (CHO-K1) cells
T3 sequence (P08911 1-531): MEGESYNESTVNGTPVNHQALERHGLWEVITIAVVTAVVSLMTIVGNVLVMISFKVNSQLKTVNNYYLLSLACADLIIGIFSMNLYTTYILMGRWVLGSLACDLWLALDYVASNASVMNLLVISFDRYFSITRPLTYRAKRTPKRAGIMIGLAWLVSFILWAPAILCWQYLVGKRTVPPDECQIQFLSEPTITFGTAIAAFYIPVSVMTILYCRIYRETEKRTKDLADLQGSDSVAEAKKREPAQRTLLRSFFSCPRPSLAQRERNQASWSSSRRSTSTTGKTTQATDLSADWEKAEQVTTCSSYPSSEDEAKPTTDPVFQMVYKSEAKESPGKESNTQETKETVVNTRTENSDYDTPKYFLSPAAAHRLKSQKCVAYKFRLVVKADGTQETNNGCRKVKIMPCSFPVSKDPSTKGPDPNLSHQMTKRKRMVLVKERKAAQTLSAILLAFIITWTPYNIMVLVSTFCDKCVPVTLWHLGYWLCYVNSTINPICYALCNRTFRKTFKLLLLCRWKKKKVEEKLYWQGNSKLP
As to the kind of experiment: calcium mobilization assay in CHO cells, incl. Schild analysis. Type of assay: cell-based. On the procedure:
CHO cells expressing rM1, rM3 and rM5 were plated at 4 × 10^4 cells per well, whereas rM2 and rM4 were plated at 6 × 10^4 cells per well, in standard growth media (as described previously under “cell culture”) in 96-well plates 24 hours before assay and were incubated overnight at 37 °C in 5% CO2. […] Cells were incubated for 45 minutes (37 °C, 5% CO2) for dye loading. Fluo4-AM dye was removed, cells were washed and replaced with 40 μL of calcium assay buffer. AEME concentration-response curves were determined in single-add experiments. […] All compounds were dissolved in dimethyl sulfoxide (DMSO) and then in calcium assay buffer to obtain a final DMSO concentration of 0.3%. […] These values were fit using GraphPad Prism version 5.0 to determine EC50 values and Schild slope and pA2 in the Schild analyses.
On the technique in general: Calcium assays in cells follow changes in intracellular calcium, usually with a dye or a luminescent sensor.

A further assay deals with caspase-3. Further details: method as in PMID 22523227. To be noted: hippocampal neurons, 6 hours of exposure; cited from earlier work.
[2] abbreviates: rat M5, AEME 10^−6 to 10^−3.5 M vs acetylcholine.

As a reminder, the Ki is the equilibrium dissociation constant of an inhibitor or competing ligand from its target. Regarding `COC(=O)C1=CC[C@@H]2CC[C@H]1N2C` [AEME, anhydroecgonine methyl ester], the “cells with fragmented DNA” value in assay [1] (10^−3 M) came to 44.1%; in assay [1] (lower AEME concentration (10^−4 M)), 32.1%. For the same compound, the DNA fragmentation result in assay [1] (10^−4 or 10^−3 M, 12 hours) was “same pattern of DNA fragmentation as the control group”. Moreover, the Ki at Rat M2 mAChR came to 19.5 µM; on Rat M4 mAChR, 24.5 µM. In addition, the mechanism of action result on Rat M5 mAChR (rat M5, 100 μM AEME on ACh curve) is reported as “antagonized the effects of ACh”. Moreover, the Schild slope at Rat M5 mAChR (setting [2]) amounted to 0.95 ± 0.07. Moreover, the “pA2 (antagonist affinity, Schild analysis)” value on Rat M5 mAChR (setting [2]) is 4.87 ± 0.10. For the same compound, at Rat M5 mAChR (rat M5, agonist mode), the calcium increase entry was “no calcium increase”. Further, the caspase-3 activity entry in the assay on caspase-3 was “increased”.
